# Measurements from patent publication US11865146B2 (priority 2015, dated 2024).
# Tested on: C. difficile strain 630
# Details: BDM without glucose
# Experimental: All strains for this study were maintained inside an anaerobic growth chamber with a gas mixture of 75% N2/20% CO2/5% H2 (Coy Lab Products, Grass Lake, MI). Liquid and solid growth media was allowed to reduce in the anaerobic chamber for a minimum of 24 hours prior to use. For transfer out of the chamber, liquid stocks were sealed in sterile, gas-tight crimp cap glass vials. C. difficile strain 630 was maintained at 37° C. on Clostridium difficile Moxalactam Norfloxacin (CDMN) blood agar plates (Aspinall et al. 1992 J Clin Pathol. 45:812-814), in Reinforced Clostridial Medium (RCM) broth (Difco DF1808173), or in Basal Defined Medium (BDM) (Karasawa et al. 1995 Microbiology. 141:371-375) broth. C. difficile amino acid (AA) utilization was assessed using modified BDM containing ½ or ¼ of the standard AA content. Proline utilization was assessed in modified BDM lacking glucose and proline. Bacterial growth rates were assessed using a BioTek Eon microplate spectrophotometer (BioTek, Winooski, VT).
smiles,measurement,value
O=C(O)[C@@H]1CCCN1 [proline],C. difficile growth in the absence of proline,unable to grow
